Source: ChEMBL document CHEMBL3044767, “GdCl3 promoted synthesis of novel pyrimidine fused indazole derivatives and their anticancer activity” (Med Chem Res, 2012)
≈ marks a conversion by molar mass, not a printed value.

Experiments:
U-937 [1] = assay: Cytotoxicity against Homo sapiens (human) U937 cells after 48 hr by MTT assay; assay type: functional, cell-based; details: U-937, 48 h
U-937 [2] = assay: Ratio of etoposide IC50 to compound IC50 for Homo sapiens (human) U937 cells after 48 hr by MTT assay; assay type: functional
THP-1 = assay: Cytotoxicity against Homo sapiens (human) THP1 cells after 48 hr by MTT assay; assay type: functional, cell-based; details: THP-1, 48 h

Compound	IC50 (U-937 [1]) [µg/mL]	Ratio IC50 (U-937 [2])	IC50 (THP-1) [µg/mL]
C=CC1(C)C[C@H](c2ccccc2)Nc2c3c(-c4ccccc4)cc(C(F)(F)F)c(C#N)c3nn21 (some centres not stated)	8.7 (≈ 19 µM)	1.21	53.3 (≈ 116 µM)
C=CC1(C)CCNc2c3c(C(F)(F)F)cc(-c4ccccc4)c(C#N)c3nn21 (configuration not stated)	53.5 (≈ 140 µM)	–	–
C=CC1(C)CCNc2c3c(-c4ccccc4)cc(C(F)(F)F)c(C#N)c3nn21 (configuration not stated)	9.73 (≈ 25.4 µM)	1.09	–
N#Cc1c(-c2ccccc2)cc(C(F)(F)F)c2c3n(nc12)[C@H]1OCCC[C@H]1CN3	6.49 (≈ 16.3 µM)	1.63	65.4 (≈ 164 µM)
N#Cc1c(C(F)(F)F)cc(-c2ccccc2)c2c3n(nc12)C(c1ccccc1)CCN3 (configuration not stated)	7.92 (≈ 18.9 µM)	1.33	–
N#Cc1c(C(F)(F)F)cc(-c2ccccc2)c2c3n(nc12)[C@H]1OCCC[C@H]1[C@H](c1ccccc1)N3	9.02 (≈ 19 µM)	1.17	79.9 (≈ 168 µM)
N#Cc1c(-c2ccccc2)cc(C(F)(F)F)c2c3n(nc12)C(c1ccccc1)CCN3 (configuration not stated)	9.36 (≈ 22.4 µM)	1.13	–
N#Cc1c(-c2ccccc2)cc(C(F)(F)F)c2c3n(nc12)[C@H]1C=CCC[C@H]1CN3	2.64 (≈ 6.69 µM)	4	–
N#Cc1c(C(F)(F)F)cc(-c2ccccc2)c2c3n(nc12)[C@H]1OCCC[C@H]1CN3	11.2 (≈ 28.2 µM)	–	33.5 (≈ 84.1 µM)
N#Cc1c(-c2ccccc2)cc(C(F)(F)F)c2c3n(nc12)C(c1ccccc1)C[C@H](c1ccccc1)N3 (some centres not stated)	7.52 (≈ 15.2 µM)	1.4	–
